{"source": "patent US20210205253A1", "about": "“Use Of Stearic Acid For Preventing Or Treating Pulmonary Fibrosis” (THE ASAN FOUNDATION, priority 2018, published 2021)", "key": {"[1]": {"system": "p-Smad2/3 and Smad7 in MRC-5 cells", "experiment": "p-Smad2/3 and Smad7 expression in fibroblasts", "assay_type": "cell-based, human", "conditions": "5 mM NAC pre-treatment 1 h, TGF-β1 1 h", "protocol": "The present inventors pre-treated a human pulmonary fibroblast cell line MRC-5 with 40 μM stearic acid for 16 hours, treated the MRC-5 cells with TGF-β1 for 1 hour, and then examined the expression levels of p-Smad2/3 and Smad7 in order to elucidate the anti-fibrotic mechanism of stearic acid in human pulmonary fibroblasts (FIGS. 12A and 12B). Further, to investigate the effect of stearic acid on the production of reactive oxygen species (ROS), MRC-5 cells were pre-treated with 40 μM stearic acid for 16 hours, and cells treated with TGF-β1 for 1 hour were stained with DCF-DA and analyzed by FACS (FIG. 12C). Furthermore, MRC-5 cells were pre-treated with 5 mM N-acetylcysteine (NAC), which is an antioxidant, for 1 hour and treated with TGF-β1 for 1 hour, and then the expression of p-Smad2/3 was examined (FIG. 12D)."}, "[2]": {"system": "human primary fibroblasts", "experiment": "Combined treatment of stearic acid and nintedanib in human primary fibroblasts", "assay_type": "cell-based", "protocol": "The primary fibroblasts derived from the patients with idiopathic pulmonary fibrosis used in the following experiment were cultured for 7 to 10 days while cutting the lung tissue of the patient into 1×1 mm^2 slices, and then periodically exchanging a cell culture solution (Eagle's minimal essential medium; EMEM) supplemented with 100 unit/ml penicillin, 100 μg/ml streptomycin, and 10% fetal bovine serum (FBS) under conditions of 5% CO2 and 37° C., and cells of passage 2 to 5 were used for the experiment. To verify the anti-fibrotic effect by the combined treatment of stearic acid and nintedanib, which is another therapeutic agent for idiopathic pulmonary fibrosis, human primary fibroblasts were respectively or simultaneously treated with 5 ng/ml TGF-β, 40 μM stearic acid, and 1.5 or 2 μM nintedanib for 24 hours, and then the expression levels of collagen type 1 (COL-1) and α-SMA, which are markers of fibrosis, were measured, respectively."}, "[3]": {"system": "human primary fibroblasts", "experiment": "Combined treatment of stearic acid and pirfenidone in human primary fibroblasts (western blotting)", "assay_type": "cell-based", "conditions": "TGF-β single treatment group set to 100%; corrected with actin", "protocol": "The primary fibroblasts derived from the patients with idiopathic pulmonary fibrosis used in the following experiment were cultured for 7 to 10 days while cutting the lung tissue of the patient into 1×1 mm^2 slices, and then periodically exchanging a cell culture solution (Eagle's minimal essential medium; EMEM) supplemented with 100 unit/ml penicillin, 100 μg/ml streptomycin, and 10% fetal bovine serum (FBS) under conditions of 5% CO2 and 37° C., and cells of passage 2 to 5 were used for the experiment.\nTo verify the anti-fibrotic effect by the combined treatment of stearic acid and pirfenidone, which is a therapeutic agent for idiopathic pulmonary fibrosis, the human primary fibroblasts isolated by the above-described method were respectively or simultaneously treated with 5 ng/ml TGF-β, 40 μM stearic acid, and 400 or 800 μM pirfenidone for 24 hours, and then the expression levels of collagen type 1 (COL-1) and α-SMA, which are markers of fibrosis, were measured by western blotting, and the inhibitory rate was quantitatively analyzed by correcting the amount of each protein with the amount of actin, which is an intracellular control protein."}, "[4]": {"system": "human pulmonary epithelial cell line Beas-2B", "experiment": "Fibronectin (EMT marker) expression under combined treatment in epithelial cells", "assay_type": "cell-based", "conditions": "TGF-β 5 ng/ml; pirfenidone 800 μM, stearic acid 40 μM", "protocol": "FIG. 15 illustrates, as the results of confirming the anti-fibrotic effect according to the combined treatment with stearic acid and pirfenidone in a human pulmonary epithelial cell line BEAS-2B, the results of treating the cells with TGF-β (5 ng/ml), stearic acid (40 μM), and/or pirfenidone (800 μM), and then measuring the expression of fibronectin with a marker of EMT, which is one of the pulmonary fibrosis indices, and quantitatively analyzing the inhibitory efficiency thereof (TGF: TGF-β single treatment group, TGF+PIR: TGF-β and pirfenidone treatment group, TGF+Combi: TGF-β and pirfenidone+stearic acid combined treatment group).\nIn addition to the results of Example 3-1-1, the present inventors tried to analyze the degree of epithelial to mesenchymal transition (EMT), which is one of the indices for pulmonary fibrosis, during the combined treatment with stearic acid and pirfenidone by treating a human pulmonary epithelial cell line Beas-2B with 800 μM, and for this purpose, the expression level of fibronectin, which is one of the EMT markers, was measured."}, "[5]": {"system": "pulmonary fibrosis induced by bleomycin", "experiment": "Combined stearic acid and pirfenidone in bleomycin pulmonary fibrosis animal model", "assay_type": "in vivo, mice (C57BL/6J)", "conditions": "3 mg/kg stearic acid, 300 mg/kg pirfenidone oral once every 2 days for 2 weeks", "protocol": "In addition to the results of the above examples, the present inventors sought to confirm the anti-fibrotic effect by the combined treatment of stearic acid and pirfenidone in a pulmonary fibrosis animal model. For this purpose, 8-week-old mice (C57BL/6J) were anesthetized with 50 mg/kg […] and 5 mg/kg Rompun, followed by injection of bleomycin and saline into the trachea. From 7 days after administration of bleomycin, 3 mg/kg stearic acid, 300 mg/kg pirfenidone or the two drugs were orally administered at the same time once every 2 days for 2 weeks, and changes in mouse body weight were measured up to 21 days after administration of bleomycin."}, "[6]": {"system": "human pulmonary fibroblasts (MRC-5)", "experiment": "Cell viability (MTT) of human pulmonary fibroblasts", "assay_type": "cell-based", "conditions": "palmitic acid 10, 20 and 40 μM/mL alone", "protocol": "(§1) After epithelial cells and fibroblasts were aliquoted into 6-well plates at 2×10^4 cells/well and a stabilization time was imparted for 24 hours, and 15 hours after deficiency, cells were treated with stearic acid (40 uM/mL), TGF-β (5 ng/mL), and stearic acid (40 uM/mL)+TGF-β (5 ng/mL) in this order. After the cells were cultured in an incubator for 24 hours after the treatment, the next-step experiment was performed.\n(§2) After a 24-hour cell stimulation by the method in Example 1-3 was completed, the medium of epithelial cells and fibroblasts was replaced with a general culture medium, 10 μl of an MTT solution (20 mg/ml) was further added, and then the outside of the plate was wrapped with aluminum foil and cells were cultured in an incubator for 2 hours. […] After 2 hours, cell activation was measured at an absorbance value of 595 nm using an ELISA reader.\n(§3) For this purpose, after each culture (BEGM(Lonza) in the case of MRC-5, and BMEM (ATCC) in the case of BEAS-2B) of human pulmonary fibroblasts (MRC-5; ATCC® CCL171™) and human pulmonary epithelial cells (BEAS-2B; ATCC® CRL9609™) was treated with stearic acid (40 uM/mL), TGF-β (5 ng/mL; Sigma), or stearic acid (40 uM/mL)+TGF-β (5 ng/mL) by the method described in Example 1-3 for 24 hours, cell viability was measured by the method in Example 1-4. […]"}, "[7]": {"system": "human pulmonary epithelial cells (BEAS-2B)", "experiment": "Cell viability (MTT) of human pulmonary epithelial cells", "assay_type": "cell-based", "conditions": "palmitic acid 10, 20 and 40 μM/mL alone", "protocol": "as §1, §2, §3"}, "pulmonary fibroblasts": {"system": "pulmonary fibroblasts", "experiment": "Collagen 1 and α-SMA immunoblotting in pulmonary fibroblasts", "assay_type": "cell-based, human", "conditions": "relative to control", "protocol": "After epithelial cells and fibroblasts were aliquoted into 6-well plates at 2×10^4 cells/well and a stabilization time was imparted for 24 hours, and 15 hours after deficiency, cells were treated with stearic acid (40 uM/mL), TGF-β (5 ng/mL), and stearic acid (40 uM/mL)+TGF-β (5 ng/mL) in this order. After the cells were cultured in an incubator for 24 hours after the treatment, the next-step experiment was performed. After 24 hours of cell stimulation by the method of Example 1-3, the cells were washed twice with iced phosphate buffer saline (PBS), a protein lysate solution was put thereinto, the cells were scraped out and collected in a 1.5 ml EP tube, and then the cells were lysed in a grinder for 30 seconds. Next, centrifugation was performed at a speed of 14,000 rpm at 4° C. for 20 minutes, and the protein was quantified using the BCA analysis method. Thereafter, the protein sample was boiled at 95° C. for 10 minutes for the same amount of protein, and then the expression levels of collagen type 1 and α-SMA were measured by immunoblotting. After the expression level of the protein was confirmed, a significance test between samples was performed using a statistical program. […] The collagen 1/actin or α-SMA/actin indicated on the y-axis of FIGS. 4A and 4B means a value obtained by correcting the protein amount of collagen 1 or α-SMA with the amount of actin, which is an intracellular control protein. […] Further, referring to the test method of obtaining the results in FIG. 4, after pulmonary fibroblasts were treated with palmitic acid at various concentrations (10, 20, and 40 μM/mL), the levels of collagen 1 (collagen 1/actin; FIG. 6A) and α-SMA (α-SMA/actin; FIG. 6B), which are intracellular fibrosis markers, were measured, and shown as relative values to the control (CTL; medium only). […] 40 uM/mL stearic acid, 10 uM/mL palmitic acid, and 5 ng/mL TGF-β were used in the experiment, respectively. […] In addition, referring to the test method of obtaining the results in FIG. 7, the experiment was performed using oleic acid (OA) instead of palmitic acid, and the levels of collagen 1 (collagen 1/actin; FIG. 8A) and α-SMA (α-SMA/actin; FIG. 8B) were measured and shown as relative values to the control (CTL; medium only). 40 uM/mL stearic acid, 40 uM/mL oleic acid, and 5 ng/mL TGF-β were used in the experiment, respectively."}, "[8]": {"conditions": "1.5 μM nintedanib single treatment versus TGF single treatment"}, "[9]": {"conditions": "2 μM nintedanib single treatment versus TGF single treatment"}, "[10]": {"conditions": "palmitic acid 10, 20 and 40 μM/mL alone"}}}
{"compound": "CC(=O)N[C@@H](CS)C(=O)O", "note": "[NAC, N-acetylcysteine, reference compound]", "values": [{"measurement": "expression of p-Smad2/3 induced by TGF-β1", "setting": "[1]", "value": "inhibited"}]}
{"compound": "COC(=O)c1ccc2c(c1)NC(=O)/C2=C(\\Nc1ccc(N(C)C(=O)CN2CCN(C)CC2)cc1)c1ccccc1", "note": "[nintedanib]", "values": [{"measurement": "expression level of COL-1", "setting": "[2]; [8]", "value": "no change"}, {"measurement": "expression level of α-SMA", "setting": "[2]; [8]", "value": "no change"}, {"measurement": "expression level of COL-1", "setting": "[2]; [9]", "value": "no change"}, {"measurement": "expression level of α-SMA", "setting": "[2]; [9]", "value": "no change"}, {"measurement": "inhibition at 2 µM", "setting": "[2]; Homo sapiens, Col1, 2 μM nintedanib, 40 μM stearic acid, COL-1 expression caused by TGF assumed 100%, read-out: inhibitory rate against COL-1", "value": 110, "unit": "%"}]}
{"compound": "Cc1ccc(=O)n(-c2ccccc2)c1", "note": "[pirfenidone]", "values": [{"measurement": "inhibitory rate of COL-1", "setting": "[3]", "value": 157, "unit": "%"}, {"measurement": "expression of fibronectin, quantitative analysis of inhibitory efficiency", "setting": "[4]", "value": "about 120%"}, {"measurement": "hydroxyproline inhibition, quantitative analysis", "setting": "[5]", "value": 105, "unit": "%"}, {"measurement": "level of hydroxyproline", "setting": "[5]; versus bleomycin group", "value": "partially reduced"}, {"measurement": "body weight", "setting": "[5]; up to day 21 after bleomycin", "value": "further reduced"}]}
{"compound": "CCCCCCCCCCCCCCCC(=O)O", "note": "[palmitic acid, reference compound]", "values": [{"measurement": "cell viability of pulmonary fibroblasts", "setting": "[6]", "value": "increased according to the concentration"}, {"measurement": "cell viability of pulmonary epithelial cells", "setting": "[7]", "value": "decreased according to the treatment concentration"}, {"measurement": "collagen 1/actin", "setting": "pulmonary fibroblasts; [10]", "value": "increased at levels similar to that in the case where pulmonary fibroblasts were treated with only TGF-β"}, {"measurement": "α-SMA/actin", "setting": "pulmonary fibroblasts; [10]", "value": "increased at levels similar to that in the case where pulmonary fibroblasts were treated with only TGF-β"}]}
{"compound": "CCCCCCCC/C=C\\CCCCCCCC(=O)O", "note": "[oleic acid, reference compound]", "values": [{"measurement": "collagen 1/actin", "setting": "pulmonary fibroblasts; oleic acid 40 uM/mL alone", "value": "activated pulmonary fibrosis at the same level as in TGF-β"}, {"measurement": "α-SMA/actin", "setting": "pulmonary fibroblasts; oleic acid 40 uM/mL alone", "value": "activated pulmonary fibrosis at the same level as in TGF-β"}]}
